Test results as given in ChEMBL document CHEMBL5729330, “Galactoside inhibitor of galectins” (2022).

Molecular target: Galectin-3 (Homo sapiens, UniProt P17931)
Experiment: Fluorescence Anisotropy Assay: The affinity of Example 1-71 for galectins were determined by a fluorescence anisotropy assay where the compound was used as an inhibitor of the interaction between galectin and a fluorescein tagged saccharide probe

Sequence of Galectin-3 (P17931 whole entry): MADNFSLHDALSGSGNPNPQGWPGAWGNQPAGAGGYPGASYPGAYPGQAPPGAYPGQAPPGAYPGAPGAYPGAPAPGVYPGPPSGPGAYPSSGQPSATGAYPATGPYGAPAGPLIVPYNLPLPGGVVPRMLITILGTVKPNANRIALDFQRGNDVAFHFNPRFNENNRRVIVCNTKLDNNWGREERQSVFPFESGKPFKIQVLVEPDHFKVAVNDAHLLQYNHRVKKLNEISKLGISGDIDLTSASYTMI

SMILES | Kd [nM]
COC1[C@@H](Sc2cc(Br)cnc2C(=O)N2CCC2)OC(CO)[C@H](O)[C@@H]1n1cc(-c2ccc(Cl)c(F)c2)nn1 (some centres undefined) | 7
CCOC1[C@@H](Sc2cc(Br)cnc2C(=O)N2CCC2)OC(CO)[C@H](O)[C@@H]1n1cc(-c2ccc(Cl)c(F)c2)nn1 (some centres undefined) | 8
CCOC1[C@@H](Sc2cc(Cl)cnc2C(=O)N2CCC2)OC(CO)[C@H](O)[C@@H]1n1cc(-c2ccc(Cl)c(F)c2)nn1 (some centres undefined) | 17
CCOC1[C@@H](Sc2cc(Cl)cnc2C(=O)N2CCC2)OC(CO)[C@H](O)[C@@H]1n1cc(-c2cc(F)c(Cl)c(F)c2)nn1 (some centres undefined) | 11
COC1[C@@H](Sc2cc(Cl)cnc2C(=O)N2CCC2)OC(CO)[C@H](O)[C@@H]1n1cc(-c2cc(F)c(Cl)c(F)c2)nn1 (some centres undefined) | 16
CCOC1[C@@H](Sc2cc(Cl)cnc2C(=O)N2CCC2)OC(CO)[C@H](O)[C@@H]1n1cc(-c2cc(F)c(F)c(F)c2)nn1 (some centres undefined) | 21
COC1[C@@H](Sc2cc(Cl)cnc2C(=O)N2CCC2)OC(CO)[C@H](O)[C@@H]1n1cc(-c2cc(F)c(F)c(F)c2)nn1 (some centres undefined) | 10
COC1[C@@H](Sc2cc(Br)cnc2C(=O)N2CCC2)OC(CO)[C@H](O)[C@@H]1n1cc(-c2cc(F)c(F)c(F)c2)nn1 (some centres undefined) | 6
COC1[C@@H](Sc2cc(Cl)cnc2C(=O)N2CCC2)OC(CO)[C@H](O)[C@@H]1n1cc(-c2ccc(Cl)c(F)c2)nn1 (some centres undefined) | 21
